Test results from PMC9823088, “The oral selective estrogen receptor degrader GDC-0810 (ARN-810) in postmenopausal women with hormone receptor-positive HER2-negative (HR + /HER2 −) advanced/metastatic breast cancer” (Breast Cancer Research and Treatment, 2022).

What was measured:
[1] = Study drug exposure (treatment duration); format: in vivo, human; conditions: phase Ia
Description: Patients in all three study phases continued treatment until unacceptable toxicity, disease progression, or consent withdrawal. See Supplementary Methods for other study treatment details.

[2] = system: tamoxifen-sensitive ER + breast cancer xenograft; conditions: tamoxifen-sensitive ER + breast cancer xenograft models; cited from earlier work

With `CC/C(=C(/c1ccc(/C=C/C(=O)O)cc1)c1ccc2[nH]ncc2c1)c1ccc(F)cc1Cl` [GDC-0810] as the molecule, how does the “patients remaining on study treatment for 2 years” value [1] read?
The value was “Two”.

And the tumor regression [2]?
The tumor regression was “induced tumor regression”.
